Data on 19 compounds can be found in patent US4816482A, “Radioprotective agents having an amino-thioalkyl structure” (priority 1983, dated 1989).

For series [1], the system named is mice. The series is described as follows: Radioprotective activity: survival at the 30th day after irradiation. The series is classed as in vivo. Particulars: for responders at 400 mg/kg: 400 mg/kg i.p.; for radioprotective activity (in words): mouse, in vivo; for responders at 500 mg/kg: 500 mg/kg i.p.; for responders at 1000 mg/kg: 1,000 mg/kg i.p.; for responders at 625 mg/kg: 625 mg/kg i.p. The method, then: This study of radioprotective activity was carried out according to a technique described by M. Fatome at al., Eur. J. Med. Chem. 1977, 12, (1), 93. […] This dose is equal to 950 Rad.
More complete studies are recorded in Table II.

Series [2] concerns mice. The series can be described thus: Acute toxicity (LD50), i.p. Particulars: Table I. The class given is in vivo.
Series [3] can be described thus: Acute toxicity (LD50), i.p. The note with it: mouse, in vivo, ip. The series is classed as in vivo, mice.
Where [4] appears, read: Mus musculus, light or radiation study, ip, 720 h, read-out: % survival at the 30th day, Table I, 750 mg/kg i.p., 15' before irradiation at 900 or 950 Rad.
Setting [5] is: Mus musculus, light or radiation study, ip, 720 h, Table I, 750 mg/kg i.p., 15' before irradiation at 900 or 950 Rad, read-out: % survival at the 30th day.
[6] abbreviates: Mus musculus, light or radiation study, ip, 720 h, Table I, 15' before irradiation at 900 or 950 Rad, read-out: % survival at the 30th day.
Setting [7] is: Mus musculus, light or radiation study, ip, 720 h, Table II, 15' before irradiation, 950 Rad, read-out: % survival at 30 days.
Where [8] appears, read: Mus musculus, light or radiation study, ip, 720 h, Table II, 15' before irradiation, 900 Rad, read-out: % survival at 30 days.
The mark [9] stands for this setting: Mus musculus, light or radiation study, ip, 720 h, Table II, 15' before irradiation, 1,100 Rad, read-out: % survival at 30 days.
[10] abbreviates: Mus musculus, light or radiation study, ip, 720 h, read-out: % survival at 30 days, Table II, 750 mg/kg i.p., 15' before irradiation, 900 Rad.
[11] abbreviates: Mus musculus, light or radiation study, ip, 720 h, read-out: % survival at 30 days, Table II, 750 mg/kg i.p., 2 hours before irradiation, 900 Rad.

SMILES strings stand for the structures. Counter-ions that a name gives are not always drawn. Like-named read-outs stand apart in the source and are kept apart here. A value given as a limit tells only on which side of the number the result lay.

`Br.Br.NCC(=O)NCCSSCCNC(=O)CN` [Example 16, N,N'-[…] DIHYDROBROMIDE]: the responders at 750 mg/kg in series [1] (setting [4]) stood at 100%. For the same compound, the LD50 (usually the dose expected to kill half of the subjects tested) in series [2] is 1,500 mg/kg.

As to `CC(=O)SCCNC(=O)CNC(=O)CN.O=C(O)C(F)(F)F` [Example 28], in series [1] (mice, 1,500 mg/kg (i.p.) 15 minutes before irradiation of 1,100 Rad), the “survival at 30 days” value was 100%. The 50% lethal dose (LD50) in series [3], in series [3] (Table I) and in series [3] (Table II) was greater than 2000 mg/kg each time.

`Br.CC(=O)SCCNC(=O)[C@H](C)N` [Example 4, HYDROBROMIDE] returned a responders at 188 mg/kg in series [1] (Mus musculus, light or radiation study, ip, 720 h, Table I, 188 mg/kg i.p., 15' before irradiation at 900 or 950 Rad) of 40%. Also, the responders at 750 mg/kg in series [1] (setting [5]) was 80%.

Turning to `Br.Br.C[C@H](N)C(=O)NCCSSCCNC(=O)[C@H](C)N` [Example 19, N,N'-[…] DIHYDROBROMIDE], the responders at 400 mg/kg in series [1] (Mus musculus, light or radiation study, ip, 720 h, read-out: % survival at the 30th day, Table I, 15' before irradiation at 900 or 950 Rad) came to 100%. The compound further showed an LD50 in series [3] (Table I) of 800 mg/kg.

Turning to `CC(=O)SCC(C)(C)NC(=O)CN` [Example 26, TRIFLUOROACETATE], the responders at 750 mg/kg in series [1] (Mus musculus, ip, 720 h, Table II, 750 mg/kg i.p., 4th entry, time and Rad not given, read-out: % survival at 30 days) was determined as 0%; in series [1] (setting [5]), 60%; in series [1] (Mus musculus, light or radiation study, ip, 720 h, Table II, 750 mg/kg i.p., 15' before irradiation, 900 Rad, read-out: % survival at 30 days), 60%; in series [1] (Mus musculus, light or radiation study, ip, 720 h, Table II, 750 mg/kg i.p., 2 hours before irradiation, 900 Rad, read-out: % survival at 30 days), 70%. In series [1] (Mus musculus, light or radiation study, ip, 720 h, Table II, 187 mg/kg i.p., 15' before irradiation, 900 Rad, read-out: % survival at 30 days), the responders at 187 mg/kg amounted to 40%. For the same compound, the “radioprotective activity (in words)” value in series [1] is “show radioprotective activity”. Moreover, the LD50 in series [3] (Table I) and in series [3] (Table II) was 1200 mg/kg each time.

In turn, `Br.CC(=O)SCCNC(=O)CCCN` [Example 6] displayed a median lethal dose (LD50) in series [2] of 800 mg/kg.

As to `CC(=O)NC(C)(C)CSC(=O)CN.O=C(O)C(F)(F)F` [Example 24], the “radioprotective activity (in words)” value in series [1] is reported as “show radioprotective activity”. In addition, the 50% lethal dose (LD50) in series [3] (Table I) and in series [3] (Table II) was 1500 mg/kg in each case.

Turning to `CC(=O)NCCSC(=O)CN.O=C(O)C(F)(F)F` [Example 34, TRIFLUOROACETATE], the responders at 500 mg/kg in series [1] (setting [6]) and in series [1] (setting [7]) was 70% in each case. The responders at 125 mg/kg in series [1] (Mus musculus, light or radiation study, ip, 720 h, Table II, 125 mg/kg i.p., 15' before irradiation, 950 Rad, read-out: % survival at 30 days) turned out to be 20%.

Regarding `CC(=O)OC(CNC(=O)CN)CSSCC(CNC(=O)CN)OC(C)=O` (stereo not drawn) [Example 31, 1,2-DI(3-GLYCYLAMINO-2-ACETOXYPROPYL)[…](TRIFLUOROACETATE)], the “% survival at 30 days” value in series [1] (ip, 93.7 mg/kg, 720 h) is recorded as 0%. Also, the “% survival at the 30th day” value in series [1] (ip, 375 mg/kg) came out at 60%. For the same compound, the LD50 in series [3] (Table I) and in series [3] (Table II) was 750 mg/kg each time.

Take `CC(=O)SCCNC(=O)CN` [Example 8]: the “% survival at the 30th day” value in series [1] (Table I, 750 mg/kg i.p., 15' before irradiation at 900 or 950 Rad) came out at 93%. Besides, the “% survival at 30 days” value in series [1] (Table II, 187 mg/kg i.p., 15' before irradiation, 900 Rad) came out at 0%; in series [1] (Table II, 750 mg/kg i.p., 15' before irradiation, 900 Rad) it was 93%; in series [1] (Table II, 750 mg/kg i.p., 15' before irradiation, 1,100 Rad), 50%. Also, the LD50 in series [3] (Table I) and in series [3] (Table II) was 1200 mg/kg throughout.

Turning to `Br.CC(=O)SCCNC(=O)CN` [Example 2, HYDROBROMIDE], the responders at 187 mg/kg in series [1] (Mus musculus, light or radiation study, ip, 720 h, Table I, 187 mg/kg i.p., 15' before irradiation at 900 or 950 Rad, read-out: % survival at the 30th day) was 67%. The responders at 750 mg/kg in series [1] (setting [5]) is 100%.

As for `NCC(=O)NCC(=O)NCCSSCCNC(=O)CNC(=O)CN.O=C(O)C(F)(F)F.O=C(O)C(F)(F)F` [Example 36, N,N'-DI(GLYCYLGLYCYL)CYSTAMINE DI(TRIFLUOROACETATE)], the responders at 1000 mg/kg in series [1] (setting [6]) and in series [1] (setting [7]) was 30% throughout. In series [1] (Mus musculus, light or radiation study, ip, 720 h, Table II, 250 mg/kg i.p., 15' before irradiation, 950 Rad, read-out: % survival at 30 days), the responders at 250 mg/kg was found to be 10%. The 50% lethal dose (LD50) in series [3] (Table I) and in series [3] (Table II) was 2000 mg/kg throughout.

On to `Br.CC(=O)SCCNC(=O)CCCN` [Example 6, HYDROBROMIDE], for which, in series [1] (setting [6]), the responders at 400 mg/kg is 60%.

On to `CC(=O)SCCNC(=O)[C@H](C)N.O=C(O)C(F)(F)F` [Example 22, TRIFLUOROACETATE], for which, in series [1] (Mus musculus, ip, 720 h, Table II, 156 mg/kg i.p., time and Rad not given, read-out: % survival at 30 days), the responders at 156 mg/kg was found to be 0%. The responders at 625 mg/kg amounted to 100% in series [1] (setting [6]); 10% in series [1] (Mus musculus, light or radiation study, ip, 720 h, Table II, 2 (hours, cut off) before irradiation, 900 Rad, read-out: % survival at 30 days); 100% in series [1] (setting [8]); 50% in series [1] (setting [9]).

As to `CC(=O)NC(C)(C)CSC(=O)CN.O=C(O)C(F)(F)F` [Example 24, TRIFLUOROACETATE], the responders at 750 mg/kg in series [1] (setting [10]) was determined as 70%; in series [1] (Mus musculus, light or radiation study, ip, 720 h, read-out: % survival at 30 days, Table II, 750 mg/kg i.p., 15' before irradiation, 1,100 Rad), 13%; in series [1] (setting [11]) it was 50%; in series [1] (setting [4]), 70%.

As to `CC(=O)SCCNC(=O)CNC(=O)CN.O=C(O)C(F)(F)F` [Example 28, TRIFLUOROACETATE], the results for the responders at 1000 mg/kg in series [1] (setting [6]), in series [1] (setting [8]) and in series [1] (setting [9]) were 100%, 100% and 0%, respectively. Further, in series [1] (Mus musculus, light or radiation study, ip, 720 h, Table II, 1,500 mg/kg i.p., 15' before irradiation, Rad not printed (1,100 in text), read-out: % survival at 30 days), the responders at 1500 mg/kg was 100%.

Regarding `NCC(=O)NCCSSCCNC(=O)CN.O=C(O)C(F)(F)F.O=C(O)C(F)(F)F` [Example 18, N,N'-[…] DI(TRIFLUOROACETATE)], in series [1] (Mus musculus, light or radiation study, ip, 720 h, read-out: % survival at 30 days, Table II, 47 mg/kg i.p., 15' before irradiation, 900 Rad), the responders at 47 mg/kg turned out to be 0%. For the same compound, in series [1] (Mus musculus, light or radiation study, ip, 720 h, read-out: % survival at 30 days, Table II, 94 mg/kg i.p., 15' before irradiation, 900 Rad), the responders at 94 mg/kg came out at 30%. In addition, the responders at 187 mg/kg in series [1] (Mus musculus, light or radiation study, ip, 720 h, read-out: % survival at 30 days, Table II, 187 mg/kg i.p., 15' before irradiation, 900 Rad) worked out at 90%; in series [1] (Mus musculus, light or radiation study, ip, 720 h, read-out: % survival at 30 days, Table II, 187 mg/kg i.p., 15' before irradiation, 1,100 Rad) it was 0%. In addition, the responders at 750 mg/kg came to 100% in series [1] (setting [10]); 10% in series [1] (Mus musculus, light or radiation study, ip, 720 h, read-out: % survival at 30 days, Table II, 750 mg/kg i.p., 15' before irradiation, 1,300 Rad); 60% in series [1] (setting [11]). Besides, the responders at 1000 mg/kg in series [1] (Mus musculus, light or radiation study, ip, 720 h, read-out: % survival at 30 days, Table II, 15' before irradiation, 1,300 Rad) is 0%. In addition, the “% survival at the 30th day” value in series [1] (ip, 750 mg/kg, 720 h) was 100%. Moreover, the LD50 in series [3] (Table I) came to 1200 mg/kg; in series [3] (Table II), 1250 mg/kg.

In the case of `Br.CC(=O)SCCNC(=O)[C@H](C)N` [Example 4], the LD50 in series [2] was 1,500 mg/kg.

As to `Br.CC(=O)SCCNC(=O)CN` [Example 2], the median lethal dose (LD50) in series [2] is 1,500 mg/kg.
